Drawing on patent US20230021562A1, “[…] D[…]-1 INHIBITORS” (priority 2019, published 2023), this text covers Ki and AC50 for 13 compounds.

For test [1], the target named is Myeloid Cell Leukemia 1 (Mcl-1) (Homo sapiens, UniProt Q07820). In words: biochemical. The format is binding. The settings on record: HTRF Ki (nM).
The test system of a further test is MOLP8 cell line. In words: MOLP8 CellEvent Caspase-3/7 Green live-cell IncuCyte apoptosis assay. Type of test: cell-based, human. To be noted: MOLP8 cells, averaged values. The method, then:
(§1) MCL-1 is a regulator of apoptosis and is highly over-expressed in tumor cells that escape cell death. The assay evaluates the cellular potency of small-molecule compounds targeting regulators of the apoptosis pathway, primarily MCL-1, Bfl-1, Bcl-2, and other proteins of the Bcl-2 family. Protein-protein inhibitors disrupting the interaction of anti-apoptotic regulators with BH3-domain proteins initiate apoptosis.
Activation of the apoptotic pathway was measured using the CellEvent™ Caspase-3/7 Green ReadyProbes™ Reagent (Thermo Fisher C10423, C10723). This assay produces a green fluorescent stain in cells that enter the apoptosis pathway. CellEvent® Caspase-3/7 Green reagent is a four amino acid peptide (DEVD) conjugated to a nucleic acid-binding dye that is non-fluorescent when not bound to DNA. The CellEvent® Caspase-3/7 Green reagent is intrinsically non-fluorescent, as the DEVD peptide inhibits binding of the dye to DNA. Upon activation of caspase-3/7 in apoptotic cells, the DEVD peptide is cleaved and the free dye can bind DNA, generating a bright green fluorescence. The activation of Caspase-3 and Caspase-7 is downstream of inhibition of MCL-1 or other apoptosis inhibiting proteins in cell lines that are dependent on them.
The live-cell readout on the IncuCyte permits tracking over time of the Caspase activation. […] The IncuCyte readout also allows one to normalize for cell number, as the suspension cells are hard to distribute evenly.
Signals were measured every 2 h for a duration of 22 h. The ratio of the Caspase mask to the Confluence mask, per image, as raw data, was calculated and the kinetic trace for every well was exported to Genedata Screener for analysis.
In Genedata Screener values for 6 h, 12 h, and 22 h from the kinetic traces were extracted. The values were normalized against negative controls (untreated cells). A standard dose-response analysis was performed on the normalized data.
The following data was reported at each of the following three aforementioned time points: (a) The dose-response curve, (b) The qAC50 and qAC50 Mode, and (c) Max Activity.
Cells were maintained in culture medium containing 10% Heat Inactivated (HI) FBS, 2 mM L-Glutamine and 50 μg/mL Gentamycin phenol red free RPMI-1640. Cells were split at 0.4 million/mL twice a week.
On Day 1, plates containing individual wells with test compounds at 10 mM concentration, 150 nL per well. The final concentrations range from […] compound (and no compound control) and compounds were thawed at room temperature for 1 hour. 25 μl of prewarmed medium was added into each well by multidrop (column 1, 3-22, 24), followed by addition of DMSO control (0.6% DMSO) in column 2. The plate was sealed using Breathe-Easy® sealing membrane and shaken for 30 min at room temperature to dissolve the test compound(s) in medium. The plate was then kept in the incubator for 1 hour at 37° C., 5% CO2.
MOLP8 cells in medium at […] (20000/50 μl final in assay) were prepared with CellEvent™ Caspase-3/7 Green Detection Reagent at 4 μM (2 μM final in assay). Once prepared, the cells were added to the test compound plate in an amount of 20000 and the plate was immediately placed in the IncuCyte and imaging started using following settings: 10× objective, 2 s exposure time in green channel, interval of 2 h, acquisition stopped after 22 h.
For analysis in IncuCyte, a Basic Analysis protocol was defined to calculate the “confluence” and “caspase” areas from the “Phase” and “green” images, respectively, as follows: (a) Confluence: Segmentation Adjustment 1, Hole Fill 0, Adjust Size −2, No filters (b) Caspase: Top-Hat segmentation, Radius 10, Threshold 0.3 GCU, Edge Split On with sensitivity 0, Hole Fill 0, Adjust Size 1, and filter on a minimum Area of 20 μm^2. The analyzer is trained on a sufficient number of positive and negative control wells, as well as compound treated wells, verifying that the “confluence” layer detects both live and dead (condensed) cells. […]

For test [2], the system named is MOLP-8 human multiple myeloma cell line. In words: MOLP8 Caspase-Glo 3/7 luminescent assay. Type of test: cell-based. The settings on record: averaged over all runs on all batches.
Text: as §1
The Caspase-Glo® 3/7 Assay is a luminescent assay that measures caspase-3 and -7 activities in purified enzyme preparations or cultures of adherent or suspension cells. The assay provides a proluminescent caspase-3/7 substrate, which contains the tetrapeptide sequence DEVD. This substrate is cleaved to release aminoluciferin, a substrate of luciferase used in the production of light. Addition of the single Caspase-Glo® 3/7 Reagent in an “add-mix-measure” format results in cell lysis, followed by caspase cleavage of the substrate and generation of a “glow-type” luminescent signal.
This assay uses the MOLP-8 human multiple myeloma cell line, which is sensitive to MCL-1 inhibition.
Cell cultures were maintained between 0.2 and 2.0×10^6 cells/mL. The cells were harvested by collection in 50 mL conical tubes. The cells were then pelleted at 500 g for 5 mins before removing supernatant and resuspension in fresh pre-warmed culture medium. The cells were counted and diluted as needed.
The assay reagent was prepared by transferring the buffer solution to the substrate vial and mixing. The solution may be stored for up to 1 week at 4° C. with negligible loss of signal.
Compounds were delivered in assay-ready plates (Proxiplate) and stored at −20° C.
Assays always include 1 reference compound plate containing reference compounds. The plates were spotted with 40 nL of compounds (0.5% DMSO final in cells; serial dilution; 30 μM highest conc. 1/3 dilution, 10 doses, duplicates). The compounds were used at room temperature and 4 μL of pre-warmed media was added to all wells except column 2 and 23. The negative control was prepared by adding 1% DMSO in media. The positive control was prepared by adding the appropriate positive control compound in final concentration of 60 μM in media. The plate was prepared by adding 4 μL negative control to column 23, 4 μL positive control to column 2 and 4 μL cell suspension to all wells in the plate. The plate with cells was then incubated at 37° C. for 2 hours. The assay signal reagent is the Caspase-Glo solution described above, and 8 μL was added to all wells. The plates were then sealed and measured after 30 minutes.
The activity of a test compound was calculated as percent change in apoptosis induction as follows: […]

The mark [3] stands for this setting: read-out: MOLP8 Caspase 3/7 AC50 at 6 h, 6 h.
Setting [4] is: read-out: MOLP8 Caspase 3/7 AC50 at 12 h, 12 h.
Where [5] appears, read: read-out: MOLP8 Caspase 3/7 AC50 at 22 h, 22 h.
The mark [6] stands for this setting: read-out: MOLP8 Caspase-Glo AC50, MOLP8 cells, 2 hours incubation.
[7] abbreviates: MOLP8 cells, 2 hours incubation, read-out: MOLP8 Caspase-Glo AC50.
Where [8] appears, read: Homo sapiens, MOLP-8, 2 h, read-out: MOLP8 Caspase-Glo AC50 (nM), MOLP8 cells, 2 hours incubation.

Values joined by “and” are separate entries in the source; they are usually repeats but may differ in a detail not shown here. Equal entries are not always repeated. Where two headings read alike, the source gives them in different places. Where only a bound is given, the exact number is not on record here.

Myeloid Cell Leukemia 1 (Mcl-1), sequence (Q07820 whole entry): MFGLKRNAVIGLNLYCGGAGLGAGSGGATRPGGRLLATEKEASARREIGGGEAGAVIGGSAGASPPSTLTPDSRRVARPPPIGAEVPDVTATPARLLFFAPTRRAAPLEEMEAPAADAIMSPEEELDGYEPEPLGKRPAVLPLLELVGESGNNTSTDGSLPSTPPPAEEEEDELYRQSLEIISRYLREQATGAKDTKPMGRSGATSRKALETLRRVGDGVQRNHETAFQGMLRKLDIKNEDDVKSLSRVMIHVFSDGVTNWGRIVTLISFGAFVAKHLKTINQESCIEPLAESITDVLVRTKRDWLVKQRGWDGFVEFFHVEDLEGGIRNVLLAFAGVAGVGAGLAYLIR

The term Ki denotes a dissociation constant, usually derived from enzyme kinetics or from competition with a known ligand. Higher therefore signals weaker binding. With `COCCn1nc2c(c1C)-c1c(Cl)ccc3c(c(C(=O)O)n(C)c13)CCCOc1cc(cc3ccccc13)SCc1cc(nn1C)CN(C)C2` (single isomer, unassigned) [Compound 27], in test [1], the Ki was 0.03 nM and 0.06 nM. The AC50 turned out to be 100 nM with MOLP8 cell line (setting [3]), 100 nM with MOLP8 cell line (setting [4]), 90 nM in the test on MOLP8 cell line (setting [5]) and 36 nM in test [2] (setting [6]).

With `COCCn1nc2c(c1C)-c1c(Cl)ccc3c(c(C(=O)O)n(C)c13)CCCOc1cc(cc3ccccc13)SCc1cc(nn1C)CN(C)C2` (single isomer, unassigned) [Compound 28], the Ki in test [1] is 9.8 nM and 9.39 nM. Moreover, the AC50 is about 20700 nM in the test on MOLP8 cell line (setting [3]), 13400 nM in the test with MOLP8 cell line (setting [4]), 11400 nM in the test on MOLP8 cell line (setting [5]) and 5400 nM in test [2] (setting [6]).

For `COCCOCCn1nc(C)c2c1CN(C)Cc1cc(n(C)n1)CSc1cc(c3ccccc3c1)OCCCc1c(C(=O)O)n(C)c3c-2c(Cl)ccc13` (single isomer, unassigned) [Compound 29], the Ki in test [1] is 0.06 nM and 0.03 nM. The AC50 in the test on MOLP8 cell line (setting [3]) was 60 nM; in the test on MOLP8 cell line (setting [4]) it was 62 nM; in the test on MOLP8 cell line (setting [5]) it was 60 nM; in test [2] (setting [7]), 23 nM.

On to `COCCOCCn1nc(C)c2c1CN(C)Cc1cc(n(C)n1)CSc1cc(c3ccccc3c1)OCCCc1c(C(=O)O)n(C)c3c-2c(Cl)ccc13` (single isomer, unassigned) [Compound 30], for which the Ki in test [1] was 0.81 nM and 0.75 nM. The AC50 with MOLP8 cell line (setting [3]) was 2010 nM; in the test on MOLP8 cell line (setting [4]), 2140 nM; in the test on MOLP8 cell line (setting [5]), 2230 nM; in test [2] (setting [7]), 971 nM.

For the compound `COCCOCCn1nc2c(c1C)-c1c(Cl)ccc3c(c(C(=O)O)n(C)c13)CCCOc1cc(cc3ccccc13)SCc1cc(nn1C)CN(C)C2` (single isomer, unassigned) [Compound 31], in test [1], the Ki is 0.04 nM and 0.03 nM. For the same compound, the AC50 in the test with MOLP8 cell line (setting [3]) worked out at 160 nM; with MOLP8 cell line (setting [4]), 160 nM; in the test with MOLP8 cell line (setting [5]), 160 nM; in test [2] (setting [7]), 39 nM.

In the case of `COCCOCCn1nc2c(c1C)-c1c(Cl)ccc3c(c(C(=O)O)n(C)c13)CCCOc1cc(cc3ccccc13)SCc1cc(nn1C)CN(C)C2` (single isomer, unassigned) [Compound 32], the inhibition constant (Ki) in test [1] is 7.44 nM and 8.51 nM. Also, the AC50 is about 27500 nM in the test with MOLP8 cell line (setting [3]), about 21500 nM in the test with MOLP8 cell line (setting [4]), about 20000 nM in the test on MOLP8 cell line (setting [5]) and 12100 nM in test [2] (setting [7]).

For the compound `Cc1nn(CCCN2CCOCC2)c2c1-c1c(Cl)ccc3c(c(C(=O)O)n(C)c13)CCCOc1cc(cc3ccccc13)SCc1cc(nn1C)CN(C)C2` (single isomer, unassigned) [Compound 33], affinity in test [1] was put at a Ki of 0.03 nM. Further, the AC50 was determined as 300 nM with MOLP8 cell line (setting [3]), 240 nM in the test on MOLP8 cell line (setting [4]), 340 nM in the test on MOLP8 cell line (setting [5]) and 94 nM in test [2] (setting [7]).

Regarding `Cc1nn(CCCN2CCOCC2)c2c1-c1c(Cl)ccc3c(c(C(=O)O)n(C)c13)CCCOc1cc(cc3ccccc13)SCc1cc(nn1C)CN(C)C2` (single isomer, unassigned) [Compound 34], the Ki in test [1] is 0.47 nM and 0.68 nM. The AC50 with MOLP8 cell line (setting [3]) turned out to be 2250 nM; with MOLP8 cell line (setting [4]) it was 2540 nM; in the test on MOLP8 cell line (setting [5]) it was 2320 nM; in test [2] (setting [7]) it was 1000 nM.

On to `Cc1c2c(nn1CCCN1CCOCC1)CN(C)Cc1cc(n(C)n1)CSc1cc(c3ccccc3c1)OCCCc1c(C(=O)O)n(C)c3c-2c(Cl)ccc13` (single isomer, unassigned) [Compound 36], for which the Ki in test [1] is 1.34 nM and 2.06 nM. In addition, the AC50 with MOLP8 cell line (setting [3]) amounted to 6140 nM; with MOLP8 cell line (setting [4]), 5770 nM; with MOLP8 cell line (setting [5]), 4290 nM; in test [2] (Homo sapiens, MOLP-8, 2 h, MOLP8 cells, 2 hours incubation, read-out: MOLP8 Caspase-Glo AC50), 2820 nM.

For the compound `Cc1c2c(nn1CCO)CN(C)Cc1cc(n(C)n1)CSc1cc(c3ccccc3c1)OCCCc1c(C(=O)O)n(C)c3c-2c(Cl)ccc13` (single isomer, unassigned) [Compound 38], the inhibitory constant (Ki) in test [1] was 0.7 nM and 0.48 nM. Besides, the AC50 with MOLP8 cell line (setting [3]) is 5490 nM; in the test with MOLP8 cell line (setting [4]) it was 5390 nM; in the test with MOLP8 cell line (setting [5]), 5160 nM; in test [2] (setting [8]), 3050 nM.

For `Cc1nn(CCO)c2c1-c1c(Cl)ccc3c(c(C(=O)O)n(C)c13)CCCOc1cc(cc3ccccc13)SCc1cc(nn1C)CN(C)C2` (single isomer, unassigned) [Compound 40], the Ki in test [1] was 2.48 nM and 2.61 nM. The AC50 with MOLP8 cell line (setting [3]) is about 26300 nM; in the test with MOLP8 cell line (setting [4]) it was over 30200 nM; with MOLP8 cell line (setting [5]), about 15600 nM; in test [2] (setting [8]) it was 10700 nM.

In the case of `Cc1nn(CCN2CCOCC2)c2c1-c1c(Cl)ccc3c(c(C(=O)O)n(C)c13)CCCOc1cc(cc3ccccc13)SCc1cc(nn1C)CN(C)C2` (single isomer, unassigned) [Compound 41], the Ki in test [1] was 0.05 nM and 0.03 nM. Moreover, the AC50 in the test with MOLP8 cell line (setting [3]) was found to be 190 nM; in the test on MOLP8 cell line (setting [4]), 200 nM; in the test with MOLP8 cell line (setting [5]), 180 nM; in test [2] (setting [7]), 72 nM.

`Cc1nn(CCN2CCOCC2)c2c1-c1c(Cl)ccc3c(c(C(=O)O)n(C)c13)CCCOc1cc(cc3ccccc13)SCc1cc(nn1C)CN(C)C2` (single isomer, unassigned) [Compound 42] came in with a Ki in test [1] of 0.79 nM. Besides, the AC50 with MOLP8 cell line (setting [3]) amounted to 2960 nM; in the test on MOLP8 cell line (setting [4]), 3180 nM; in the test with MOLP8 cell line (setting [5]), 2980 nM; in test [2] (setting [7]), 1260 nM.
